This note sets out measurements from patent publication US9765092B2, “Tricyclic piperidine compounds” (ACTELION PHARMACEUTICALS LTD, priority 2013, dated 2017).

The target in this assay is human TPH1 (Homo sapiens (Human), UniProt P17752). Nature of the assay: Biochemical in vitro assay using fluorescence readout (TPH1 inhibition). An excerpt:
Biochemical In Vitro Assay Using Fluorescence Readout
To generate the enzyme, full length human TPH1 is cloned into the plasmid pET20b(+) (Novagen) and expressed in E. coli. The bacterial cells are ruptured by sonication on ice and the lysate is cleared by centrifugation. The resulting protein in the pellet is re-extracted and TPH1 is purified from the obtained lysate by affinity chromatography using a pterin cosubstrate analog immobilized to the resin of the column. The protein is further purified by size exclusion chromatography to remove protein aggregates. The activity of TPH1 is determined by using a fluorescence assay. The enzyme activity assay is carried out at 15° C. with atmosphere oxygen for the duration of 60 minutes in a volume of 64 μl. The reaction is carried out in a 0.1 M Tris-HCl buffer, adjusted to pH 7.6, containing 1 mM DTT, 0.2 mg/mL catalase, 100 μM (±)-6-methyl-5,6,7,8-tetrahydropterine dihydrochloride, 40 μM L-tryptophan, and 40-80 nM of TPH1. The reaction is started by bringing together L-tryptophan with all the other reaction substituents and stopped by quenching with perchloric acid (HClO4). The amount of 5-hydroxy-L-tryptophan produced during the enzymatic reaction is determined by fluorescence readout. Fluorescence, as determined at 540 nm when excited at 300 nm wavelength, increases proportionally to the 5-hydroxy-L-tryptophan formed. Compounds are prepared as 10 mM stock solution in DMSO, then diluted in 384-well plates using DMSO followed by a transfer of the dilutions into the assay plate. Fluorescence is measured for each well and the fluorescence at 540 nm wavelength is compared to the fluorescence of the vehicle in place of compound. Inhibitory activities of example compounds with respect to the TPH1 protein are determined by calculating the IC50 value (the concentration of compound needed to inhibit 50% of the enzyme activity). The calculated IC50 values may fluctuate depending on the daily biochemical assay performance. Fluctuations of this kind are known to those skilled in the art.

Where [1] appears, read: human TPH1, fluorescence readout.

Chain of human TPH1 (P17752 whole entry): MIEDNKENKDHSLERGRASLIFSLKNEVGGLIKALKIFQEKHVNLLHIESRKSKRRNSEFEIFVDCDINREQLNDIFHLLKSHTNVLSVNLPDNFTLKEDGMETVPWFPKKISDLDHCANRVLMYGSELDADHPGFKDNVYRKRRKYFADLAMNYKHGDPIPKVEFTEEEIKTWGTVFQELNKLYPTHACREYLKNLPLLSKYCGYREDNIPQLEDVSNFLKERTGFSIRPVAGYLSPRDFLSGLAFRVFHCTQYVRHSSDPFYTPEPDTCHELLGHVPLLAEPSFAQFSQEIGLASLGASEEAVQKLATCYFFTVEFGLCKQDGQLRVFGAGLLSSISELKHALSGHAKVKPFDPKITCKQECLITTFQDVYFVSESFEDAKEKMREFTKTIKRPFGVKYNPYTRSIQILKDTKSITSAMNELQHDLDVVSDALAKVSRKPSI

With `Cc1nn2c3c(nc2s1)CCN(C(=O)COc1ccc(F)cc1F)C3c1ccc(C2CC2)cc1F` (stereo not drawn) [Example 1.6.1, 1-(5-(4-cyclopropyl-2-fluorophenyl)-2-methyl-7,8-dihydro-[1,3,4]thiadiazolo[2′,3′:2,3]imidazo[4,5-c]pyridin-6(5H)-yl)-2-(2,4-difluorophenoxy)ethanone], 13 nM corresponded to half-maximal inhibition under setting [1] (IC50). The same measure, in the same setting: the same measure for `CS(=O)(=O)Nc1ccc(OCC(=O)N2CCc3nc4sc(C(F)(F)F)nn4c3C2c2ccc(Cl)cc2F)c(Cl)n1` (stereo not drawn) [Example 5.1.1, N-(6-chloro-5-(2-(5-(4-chloro-2-fluorophenyl)-2-(trifluoromethyl)-7,8-dihydro-[1,3,4]thiadiazolo-[2′,3′:2,3]imidazo[4,5-c]pyridin-6(5H)-yl)-2-oxoethoxy)pyridin-2-yl)methanesulfonamide]: 50 nM.

Regarding `COC(=O)c1csc(C2c3c(nc4sc(C)nn34)CCN2C(=O)COc2ccc(N3CCOCC3)nc2Cl)c1` (stereo not drawn) [Example 1.21.1, Methyl 5-(6-(2-((2-chloro-6-morpholinopyridin-3-yl)oxy)acetyl)-2-methyl-5,6,7,8-tetrahydro-[1,3,4]thiadiazolo[2′,3′:2,3]imidazo[4,5-c]pyridin-5-yl)thiophene-3-carboxylate], the IC50 under setting [1] worked out at 5 nM. Against the preceding molecule, the IC50 is about 10-fold lower. Molecule `CCc1nc(NS(C)(=O)=O)ccc1OCC(=O)N1CCc2nc3sc(C)nn3c2[C@@H]1c1ncc(C)cc1F` [Example 1.31.16, (R)-N-(6-ethyl-5-(2-(5-(3-fluoro-5-methylpyridin-2-yl)-2-methyl-7,8-dihydro-[1,3,4]thiadiazolo[2′,3′:2,3]imidazo[4,5-c]pyridin-6(5H)-yl)-2-oxoethoxy)pyridin-2-yl)methanesulfonamide] came in with an IC50 under setting [1] of 18 nM. On the same count and under the same terms, the same measure for `Cc1nn2c3c(nc2s1)CCN(C(=O)COc1ccc(NS(C)(=O)=O)nc1Cl)C3c1sc(C(F)(F)F)nc1C` (stereo not drawn) [Example 1.76.1, N-(6-chloro-5-(2-(2-methyl-5-(4-methyl-2-(trifluoromethyl)thiazol-5-yl)-7,8-dihydro-[1,3,4]thiadiazolo[2′,3′:2,3]imidazo[4,5-c]pyridin-6(5H)-yl)-2-oxoethoxy)pyridin-2-yl)methanesulfonamide]: 20 nM; for `Cc1nn2c3c(nc2s1)CCN(C(=O)COc1ccc(C(=O)N(C)C2CC2)nc1Cl)C3c1ccc(C2CC2)cc1F` (stereo not drawn) [Example 1.6.28, 6-chloro-N-cyclopropyl-5-(2-(5-(4-cyclopropyl-2-fluoro-phenyl)-2-methyl-7,8-dihydro-[1,3,4]thiadiazolo-[2′,3′:2,3]imidazo[4,5-c]pyridin-6(5H)-yl)-2-oxoethoxy)-N-methylpicolinamide]: 18 nM; for `CS(=O)(=O)Nc1ccc(OCC(=O)N2CCc3nc4sc(CF)nn4c3C2c2ccc(Cl)cc2F)c(Cl)n1` (stereo not drawn) [Example 7.1.1, N-(6-chloro-5-(2-(5-(4-chloro-2-fluorophenyl)-2-(fluoromethyl)-7,8-dihydro-[1,3,4]thiadiazolo[2′,3′:2,3-]imidazo[4,5-c]pyridin-6(5H)-yl)-2-oxoethoxy)pyridin-2-yl)methanesulfonamide]: 8 nM. Same read-out and setting: the value for `Cc1nn2c3c(nc2s1)CCN(C(=O)COc1ccc(C(=O)N(C)C)nc1Cl)C3c1cncs1` (stereo not drawn) [Example 1.39.2, 6-chloro-N,N-dimethyl-5-(2-(2-methyl-5-(thiazol-5-yl)-7,8-dihydro-[1,3,4]thiadiazolo[2′,3′:2,3]imidazo[4,5-c]pyridin-6(5H)-yl)-2-oxoethoxy)picolinamide] was 69 nM. For `CCc1nc(C)ccc1OCC(=O)N1CCc2nc3sc(C)nn3c2C1c1ccc(C2CC2)cc1F` (stereo not drawn) [Example 1.6.8, 1-(5-(4-cyclopropyl-2-fluorophenyl)-2-methyl-7,8-dihydro-[1,3,4]thiadiazolo[2′,3′:2,3]imidazo[4,5-c]pyridin-6(5H)-yl)-2-((2-ethyl-6-methylpyridin-3-yl)oxy)ethanone], the midpoint of inhibition under setting [1], the IC50, lay at 23 nM. On the same count and under the same terms, the value for `Cc1nn2c3c(nc2s1)CCN(C(=O)COc1ccc(N2CCOCC2)nc1Cl)C3c1scnc1C` (stereo not drawn) [Example 1.32.1, 2-((2-chloro-6-morpholinopyridin-3-yl)oxy)-1-(2-methyl-5-(4-methylthiazol-5-yl)-7,8-dihydro-[1,3,4]thiadiazolo [2′,3′:2,3]imidazo[4,5-c]pyridin-6(5H)-yl)ethanone] was 2 nM; that for `COC(=O)c1ccc(C2c3c(nc4sc(C)nn34)CCN2C(=O)COc2ccc(N3CCOCC3)nc2Cl)o1` (stereo not drawn) [Example 1.26.1, Methyl 5-(6-(2-((2-chloro-6-morpholinopyridin-3-yl)oxy)acetyl)-2-methyl-5,6,7,8-tetrahydro-[1,3,4]thiadiazolo [2′,3′:2,3]imidazo[4,5-c]pyridin-5-yl)furan-2-carboxylate] was 10 nM; that for `O=C(COc1cccnc1Cl)N1CCc2nc3sccn3c2C1c1ccc(Cl)cc1F` (stereo not drawn) [Example 6.4.4, 1-(5-(4-chloro-2-fluorophenyl)-7,8-dihydrothiazolo-[2′,3′:2,3]imidazo[4,5-c]pyridin-6(5H)-yl)-2-((2-chloropyridin-3-yl)oxy)ethanone] was 13 nM. Still for that read-out and setting: the value for “2-((2-chloro-6-morpholinopyridin-3-yl)oxy)-1-(5-(4-(2-hydroxypropan-2-yl)thiophen-2-yl)-2-methyl-7,8-dihydro-[1,3,4]thiadiazolo[2′,3′:2,3]imidazo[4,5-c]pyridin-6(5H)-yl)ethanone [Example 1.19.1]” was 6 nM. On the same count and under the same terms, the same measure for `CCc1cc(Cl)ccc1OCC(=O)N1CCc2nc3sc(C)nn3c2C1c1ccc(C2CC2)cc1F` (stereo not drawn) [Example 1.6.7, 2-(4-chloro-2-ethylphenoxy)-1-(5-(4-cyclopropyl-2-fluorophenyl)-2-methyl-7,8-dihydro-[1,3,4]thiadiazolo[2′,3′:2,3]imidazo[4,5-c]pyridin-6(5H)-yl)ethanone]: 7 nM; for `Cc1nn2c3c(nc2s1)CCN(C(=O)COc1ccc(NS(C)(=O)=O)nc1Cl)C3c1ccc(C2CC2)cc1F` (stereo not drawn) [Example 1.6.26, N-(6-chloro-5-(2-(5-(4-cyclopropyl-2-fluorophenyl)-2-methyl-7,8-dihydro-[1,3,4]thiadiazolo[2′,3′:2,3]imidazo[4,5-c]pyridin-6(5H)-yl)-2-oxoethoxy)pyridin-2-yl)methanesulfonamide]: 12 nM; for `Cc1nn2c3c(nc2s1)CCN(C(=O)COc1ccc(N(C)CC(F)(F)F)nc1Cl)C3c1cc(CN(C)C)cs1` (stereo not drawn) [Example 1.8.5, 2-((2-chloro-6-(methyl(2,2,2-trifluoroethyl)amino)pyridine-3-yl)oxy)-1-(5-(4-((dimethylamino)methyl)thiophen-2-yl)-2-methyl-7,8-dihydro-[1,3,4]thiadiazolo[2′,3′:2,3]imidazo[4,5-c]pyridin-6(5H)-yl)ethanone]: 25 nM. As for `Cc1nn2c3c(nc2s1)CCN(C(=O)COc1ccnc2c(F)ccc(F)c12)C3c1ccc(Cl)cc1F` (stereo not drawn) [Example 1.4.65, 1-(5-(4-chloro-2-fluorophenyl)-2-methyl-7,8-dihydro-[1,3,4]thiadiazolo[2′,3′:2,3]imidazo[4,5-c]pyridin-6(5H)-yl)-2-((5,8-difluoroquinolin-4-yl)oxy)ethan-1-one], under setting [1], half-maximal inhibition (IC50) was put at 31 nM. Still for that read-out and setting: the value for `CNC(=O)c1cc(F)c(C2c3c(nc4sc(C)nn34)CCN2C(=O)COc2cc(F)cnc2Cl)s1` (stereo not drawn) [Example 1.25.9, 5-(6-(2-((2-chloro-5-fluoropyridin-3-yl)oxy)acetyl)-2-methyl-5,6,7,8-tetrahydro-[1,3,4]thiadiazolo[2′,3′:2,3]imidazo[4,5-c]pyridin-5-yl)-4-fluoro-N-methylthiophene-2-carboxamide] was 47 nM; that for `Cc1nn2c3c(nc2s1)CCN(C(=O)COc1ccc(C(=O)NC2CC2)nc1Cl)C3c1ccc(OC(F)(F)F)cc1F` (stereo not drawn) [Example 1.77.2, 6-chloro-N-cyclopropyl-5-(2-(5-(2-fluoro-4-(trifluoromethoxy)phenyl)-2-methyl-7,8-dihydro-[1,3,4]thiadiazolo[2′,3′:2,3]imidazo[4,5-c]pyridin-6(5H)-yl)-2-oxoethoxy)picolinamide] was 28 nM. Molecule `Cc1nn2c3c(nc2s1)CCN(C(=O)COc1ccc(N2CCCC2=O)nc1Cl)C3c1ccc(Cl)cc1F` (stereo not drawn) [Example 1.4.17, 1-(6-Chloro-5-(2-(5-(4-chloro-2-fluorophenyl)-2-methyl-7,8-dihydro-[1,3,4]thiadiazolo[2′,3′:2,3]imidazo[4,5-c]pyridin-6(5H)-yl)-2-oxoethoxy)pyridin-2-yl)pyrrolidin-2-one] showed an IC50 (full length human TPH1, 40 μM L-tryptophan, 15° C., 60 minutes, fluorescence at 540 nm, mean if determined several times) of 2 nM. That is a single-digit nanomolar value. The molecule `CCc1nc(C)ccc1OCC(=O)N1CCc2nc3sccn3c2C1c1c(C)noc1C` (stereo not drawn) [Example 6.5.1, 1-(5-(3,5-dimethylisoxazol-4-yl)-7,8-dihydrothiazolo-[2′,3′:2,3]imidazo[4,5-c]pyridin-6(5H)-yl)-2-((2-ethyl-6-methylpyridin-3-yl)oxy)ethanone] displayed an IC50 under setting [1] of 117 nM.

As a reminder, the IC50 is the concentration that inhibits the measured activity by half.
